Reference: PMC10502144, “Anti-methicillin-resistant Staphylococcus aureus activity and safety evaluation of 14-O-[(5-ethoxycarbonyl-4,6-dimethylpyrimidine-2-yl) thioacetyl] mutilin (EDT)” (Scientific Reports, 2023)
Converted amounts (≈) assume the structure as drawn.

Tested on: clinical isolates of MRSA
Assay: MIC by broth serial-dilution against 48 clinical isolates of MRSA
Format: cell-based, methicillin-resistant Staphylococcus aureus
Details: for MIC: Staphylococcus aureus, MRSA
Method: The tests against 48 clinical isolates of MRSA from dairy farms in 4 different provinces in China[37] were conducted in triplicate, using broth serial-dilution method in 96-well plates according to CLSI reference methods. Briefly, EDT and tiamulin fumarate used as referent drug were dissolved in 25% dimethyl sulfoxide (DMSO) to a solution with concentration of 64 μg/mL. The obtained 100 μL solutions were then added into the first column of the 96-well plate, and diluted to the tenth well with serial twofold dilutions. The last two wells were used as positive controls. The 100 μL bacterial suspension was diluted in MHB to give a final organism density of to 10^5 ~ 10^6 colony-forming unit (CFU) per 1 mL and added to all the wells, followed by incubating at 37 °C for 24 h. […] The results were expressed as an average of the MICs obtained from three independent experiments.

For `C=CC1(C)CC(OC(=O)CSc2nc(C)c(C(=O)OCC)c(C)n2)C2(C)C(C)CCC3(CCC(=O)C32)C(C)C1O` (stereo not drawn) [EDT, 14-O-[(5-ethoxycarbonyl-4,6-dimethylpyrimidine-2-yl)thioacetyl] mutilin], the MIC (strain CX2) was 0.0313 µg/mL (≈ 0.0546 µM), the MIC (strain CX5) was 0.0313 µg/mL (≈ 0.0546 µM) and the MIC (strain CX6) was 0.0313 µg/mL (≈ 0.0546 µM). The MIC (strain CX7) was 0.0625 µg/mL (≈ 0.109 µM), the MIC (strain CX9) was 0.125 µg/mL (≈ 0.218 µM) and the MIC (strain HG1) was 0.0313 µg/mL (≈ 0.0546 µM). For the same compound, the MIC (strain HG2) was 0.0313 µg/mL (≈ 0.0546 µM), the MIC (strain HG3) was 0.0313 µg/mL (≈ 0.0546 µM) and the MIC (strain HG4) was 0.0313 µg/mL (≈ 0.0546 µM). The MIC (strain HG5) was 0.0313 µg/mL (≈ 0.0546 µM), the MIC (strain HG6) was 0.0313 µg/mL (≈ 0.0546 µM) and the MIC (strain HG7) was 0.0625 µg/mL (≈ 0.109 µM). It also gave an MIC (strain QY4) of 0.0313 µg/mL (≈ 0.0546 µM), an MIC (strain QY5) of 0.0313 µg/mL (≈ 0.0546 µM) and an MIC (strain QY6) of 0.0625 µg/mL (≈ 0.109 µM). For the same compound, the MIC (strain QY8) was 0.0313 µg/mL (≈ 0.0546 µM), the MIC (strain QY10) was 0.0625 µg/mL (≈ 0.109 µM) and the MIC (strain SH3) was 0.0313 µg/mL (≈ 0.0546 µM). It also gave an MIC (strain SH4) of 0.0313 µg/mL (≈ 0.0546 µM), an MIC (strain SH6) of 0.0313 µg/mL (≈ 0.0546 µM) and an MIC (strain SH7) of 0.0625 µg/mL (≈ 0.109 µM). It also gave an MIC (strain SH8) of 0.0313 µg/mL (≈ 0.0546 µM), an MIC (strain SH9) of 0.0313 µg/mL (≈ 0.0546 µM) and an MIC (strain SH10) of 0.0313 µg/mL (≈ 0.0546 µM). For the same compound, the MIC (strain SH11) was 0.0313 µg/mL (≈ 0.0546 µM), the MIC (strain SH12) was 0.0313 µg/mL (≈ 0.0546 µM) and the MIC (strain SH13) was 0.0313 µg/mL (≈ 0.0546 µM). The MIC (strain SH14) was 0.0313 µg/mL (≈ 0.0546 µM), the MIC (strain SH15) was 0.0313 µg/mL (≈ 0.0546 µM) and the MIC (strain SX5) was 0.0313 µg/mL (≈ 0.0546 µM). It also gave an MIC (strain SX6) of 0.0313 µg/mL (≈ 0.0546 µM), an MIC (strain SX7) of 0.0313 µg/mL (≈ 0.0546 µM) and an MIC (strain SX8) of 0.0313 µg/mL (≈ 0.0546 µM). The MIC (strain SX9) was 0.0313 µg/mL (≈ 0.0546 µM), the MIC (strain SX10) was 0.0313 µg/mL (≈ 0.0546 µM) and the MIC (strain SX16) was 0.0625 µg/mL (≈ 0.109 µM). The MIC (strain SX17) was 0.0313 µg/mL (≈ 0.0546 µM), the MIC (strain SX18) was 0.0313 µg/mL (≈ 0.0546 µM) and the MIC (strain ZY1) was 0.0313 µg/mL (≈ 0.0546 µM). It also gave an MIC (strain ZY2) of 0.0313 µg/mL (≈ 0.0546 µM), an MIC (strain ZY3) of 0.0313 µg/mL (≈ 0.0546 µM) and an MIC (strain ZY4) of 0.0313 µg/mL (≈ 0.0546 µM). For the same compound, the MIC (strain ZY5) was 0.0313 µg/mL (≈ 0.0546 µM), the MIC (strain ZY6) was 0.0313 µg/mL (≈ 0.0546 µM) and the MIC (strain ZY7) was 0.0313 µg/mL (≈ 0.0546 µM). For the same compound, the MIC (strain ZY8) was 0.0625 µg/mL (≈ 0.109 µM), the MIC (strain ZY9) was 0.0313 µg/mL (≈ 0.0546 µM) and the “MIC values against 48 strains” value (range over 48 clinical isolates of MRSA) was 0.0313 to 0.125 µg/mL.
